Active and inactive are the calls of the source. How the calls were made is not given here.
System: rodent carcinogenicity bioassays, tumor incidence
Experiment: CCRIS carcinogenicity studies
In short: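 Archive of carcinogenicity, mutagenicity, tumor promotion and tumor inhibition results drawn from journals, NCI reports and other sources, expert-reviewed; covers 1985-2011 and is no longer updated.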

SMILES: Nc1cc(S(=O)(=O)O)cc2c1C(=O)/C(=N/Nc1ccc(-c3ccc(N/N=C4/C(=O)c5c(N)cc(S(=O)(=O)O)cc5C=C4S(=O)(=O)O)cc3)cc1)C(S(=O)(=O)O)=C2
- carcinogen call (Species: RAT, Strain/Sex: F344/FEMALE, Route: ORAL, Dose: 0, 190, 375, 750, 1500, 3000 PPM IN DIET FOR 91 D (STUDY DURATION: 93 D), Dose: 0, 190, 375, 750, 1500, 3000 PPM IN DIET FOR 91 D (STUDY DURATION: 93 D), Tumor Site: Type of Lesion: LIVER: HEPATOCELLULAR CARCINOMA OR NEOPLASTIC NODULE, FOCI OF CELLULAR ALTERATION OR BASOPHILIC FOCI): active; positive
- carcinogen call (Species: RAT, Strain/Sex: F344/MALE, Route: ORAL, Dose: 0, 190, 375, 750, 1500, 3000 PPM IN DIET FOR 91 D (STUDY DURATION: 93 D), Dose: 0, 190, 375, 750, 1500, 3000 PPM IN DIET FOR 91 D (STUDY DURATION: 93 D), Tumor Site: Type of Lesion: LIVER: HEPATOCELLULAR CARCINOMA OR NEOPLASTIC NODULE, FOCI OF CELLULAR ALTERATION OR BASOPHILIC FOCI): active; positive

SMILES: CCc1ccccc1
- carcinogen call (Species: MOUSE, Strain/Sex: B6C3F1/FEMALE, Route: INHALATION, Dose: 0, 75, 250, 750 PPM 6 HR/D 5 D/WK FOR 103 WK (STUDY DURATION: 104 WK), Dose: 0, 75, 250, 750 PPM 6 HR/D 5 D/WK FOR 103 WK (STUDY DURATION: 104 WK), Tumor Site: Type of Lesion: LIVER: HEPATOCELLULAR ADENOMA, HEPATOCELLULAR ADENOMA OR CARCINOMA): active; positive
- carcinogen call (Species: MOUSE, Strain/Sex: B6C3F1/MALE, Route: INHALATION, Dose: 0, 75, 250, 750 PPM 6 HR/D 5 D/WK FOR 103 WK (STUDY DURATION: 104 WK), Dose: 0, 75, 250, 750 PPM 6 HR/D 5 D/WK FOR 103 WK (STUDY DURATION: 104 WK), Tumor Site: Type of Lesion: LUNG: ALVEOLAR/BRONCHIOLAR ADENOMA, ALVEOLAR/BRONCHIOLAR ADENOMA OR CARCINOMA): active; positive
- carcinogen call (Species: RAT, Strain/Sex: F344/FEMALE, Route: INHALATION, Dose: 0, 75, 250, 750 PPM 6 HR/D 5 D/WK FOR 104 WK (STUDY DURATION: 105 WK), Dose: 0, 75, 250, 750 PPM 6 HR/D 5 D/WK FOR 104 WK (STUDY DURATION: 105 WK), Tumor Site: Type of Lesion: KIDNEY (RENAL TUBULE): ADENOMA): active; positive
- carcinogen call (Species: RAT, Strain/Sex: F344/MALE, Route: INHALATION, Dose: 0, 75, 250, 750 PPM 6 HR/D 5 D/WK FOR 104 WK (STUDY DURATION: 105 WK), Dose: 0, 75, 250, 750 PPM 6 HR/D 5 D/WK FOR 104 WK (STUDY DURATION: 105 WK), Tumor Site: Type of Lesion: KIDNEY (RENAL TUBULE): ADENOMA): active; positive
- carcinogen call (Species: RAT, Strain/Sex: STRAIN-CD/FEMALE, Route: INTRAGASTRIC, Dose: 0, 500 MG/KG IN OLIVE OIL 1/D 4-5 D/WK FOR 104 WK (STUDY DURATION: 104 WK)): inactive; negative
- carcinogen call (Species: RAT, Strain/Sex: STRAIN-CD/MALE, Route: INTRAGASTRIC, Dose: 0, 500 MG/KG IN OLIVE OIL 1/D 4-5 D/WK FOR 104 WK (STUDY DURATION: 104 WK)): inactive; negative

SMILES: Cc1ccc(S(=O)(=O)O)cc1C
- carcinogen call (Species: MOUSE, Strain/Sex: B6C3F1/FEMALE, Route: DERMAL, Dose: 0, 182, 364, 727 MG/KG IN 50% ETHANOL 5D/WK FOR 105 WK (STUDY DURATION: 105 WK), Dose: 0, 182, 364, 727 MG/KG IN 50% ETHANOL 5D/WK FOR 105 WK (STUDY DURATION: 105 WK)): inactive; negative
- carcinogen call (Species: MOUSE, Strain/Sex: B6C3F1/MALE, Route: DERMAL, Dose: 0, 182, 364, 727 MG/KG IN 50% ETHANOL 5D/WK FOR 104 WK (STUDY DURATION: 104 WK), Dose: 0, 182, 364, 727 MG/KG IN 50% ETHANOL 5D/WK FOR 104 WK (STUDY DURATION: 104 WK)): inactive; negative
- carcinogen call (Species: RAT, Strain/Sex: F344/FEMALE, Route: DERMAL, Dose: 0, 60, 120, 240 MG/KG IN 50% ETHANOL 5 D/WK FOR 104 WK (STUDY DURATION: 104 WK), Dose: 0, 60, 120, 240 MG/KG IN 50% ETHANOL 5 D/WK FOR 104 WK (STUDY DURATION: 104 WK)): inactive; negative
- carcinogen call (Species: RAT, Strain/Sex: F344/MALE, Route: DERMAL, Dose: 0, 60, 120, 240 MG/KG IN 50% ETHANOL 5D/WK FOR 104 WK (STUDY DURATION: 104 WK), Dose: 0, 60, 120, 240 MG/KG IN 50% ETHANOL 5D/WK FOR 104 WK (STUDY DURATION: 104 WK)): inactive; negative

SMILES: NNC(=O)c1ccccc1
- carcinogen call (Species: MOUSE, Strain/Sex: SWISS/FEMALE, Route: ORAL, Dose: 0, 0.1% SOLUTION IN DRINKING WATER STARTING AT 6 WK OF AGE AND CONTINUED FOR LIFE FOR AN AVERAGE DAILY INTAKE OF 0, 0.57, Dose: 0, 0.1% SOLUTION IN DRINKING WATER STARTING AT 6 WK OF AGE AND CONTINUED FOR LIFE FOR AN AVERAGE DAILY INTAKE OF 0, 0.57, Tumor Site: Type of Lesion: LUNG: ADENOMA, LUNG: ADENOMA AND ADENOCARCINOMA): active; positive
- carcinogen call (Species: MOUSE, Strain/Sex: SWISS/MALE, Route: ORAL, Dose: 0, 0.01% SOLUTION IN DRINKING WATER STARTING AT 6 WK OF AGE AND CONTINUED FOR LIFE FOR AN AVERAGE DAILY INTAKE OF 0, 0.8, Dose: 0, 0.01% SOLUTION IN DRINKING WATER STARTING AT 6 WK OF AGE AND CONTINUED FOR LIFE FOR AN AVERAGE DAILY INTAKE OF 0, 0.8, Tumor Site: Type of Lesion: LUNG: ADENOMA, LUNG: ADENOMA AND ADENOCARCINOMA): active; positive

SMILES: COc1ccc([C@@H]2CC(=O)c3c(O)cc(O[C@@H]4O[C@H](CO[C@@H]5O[C@@H](C)[C@H](O)[C@@H](O)[C@H]5O)[C@@H](O)[C@H](O)[C@H]4O)cc3O2)cc1OC
- carcinogen call (Species: MOUSE, Strain/Sex: B6C3F1/FEMALE, Route: ORAL, Dose: 0, 1.25, 5% IN DIET FOR 96 WK FOLLOWED BY BASAL DIET FOR AN ADDITIONAL 8 WK (STUDY DURATION: 104 WK), Dose: 0, 1.25, 5% IN DIET FOR 96 WK FOLLOWED BY BASAL DIET FOR AN ADDITIONAL 8 WK (STUDY DURATION: 104 WK)): inactive; negative
- carcinogen call (Species: MOUSE, Strain/Sex: B6C3F1/MALE, Route: ORAL, Dose: 0, 1.25, 5% IN DIET FOR 96 WK FOLLOWED BY BASAL DIET FOR AN ADDITIONAL 8 WK (STUDY DURATION: 104 WK), Dose: 0, 1.25, 5% IN DIET FOR 96 WK FOLLOWED BY BASAL DIET FOR AN ADDITIONAL 8 WK (STUDY DURATION: 104 WK)): inactive; negative

SMILES: Cc1cc(O)c2c(c1O)C(=O)C13C(=C2O)C(=O)C2C(O)C1C1C(O)C3C(=O)C3=C(O)c4c(O)cc(C)c(O)c4C(=O)C321 (centres undefined)
- carcinogen call (Species: MOUSE, Route: ORAL, Tumor Site: Type of Lesion: LIVER): active; positive

SMILES: S=C=NCCc1ccccc1
- carcinogen call (Species: RAT, Strain/Sex: F344/MALE, Route: DIET (ORAL), Dose: 0.1% FOR 12 WK (STUDY DURATION: 48 WK)): inactive; negative (bladder hyperplasias observed)
- carcinogen call (Species: RAT, Strain/Sex: F344/MALE, Route: DIET (ORAL), Dose: 0.1% FOR 24 WK (STUDY DURATION: 48 WK)): inactive; negative (bladder hyperplasias observed)
- carcinogen call (Species: RAT, Strain/Sex: F344/MALE, Route: DIET (ORAL), Dose: 0.1% FOR 48 WK (STUDY DURATION: 48 WK)): inactive; negative (bladder hyperplasias and dysplasias observed)
- carcinogen call (Species: RAT, Strain/Sex: F344/MALE, Route: ORAL, Dose: 0.1% IN DIET FOR 32 WK, THEN SWITCHED TO BASAL DIET FOR 16 WK (STUDY DURATION: 48 WK), Tumor Site: Type of Lesion: URINARY BLADDER: CARCINOMA): active; positive
- carcinogen call (Species: RAT, Strain/Sex: F344/MALE, Route: ORAL, Dose: 0.1% IN DIET FOR 48 WK (STUDY DURATION: 48 WK), Tumor Site: Type of Lesion: URINARY BLADDER: CARCINOMA): active; positive

SMILES: CN(C)CCN(Cc1ccccc1)c1ccccn1
- carcinogen call (Species: RAT, Strain/Sex: SPRAGUE-DAWLEY/FEMALE, Route: ORAL, Dose: 0, 500, 1000 PPM IN DRINKING WATER 5D/WK FOR LIFE (STUDY DURATION: 493-754 D), Dose: 0, 500, 1000 PPM IN DRINKING WATER 5D/WK FOR LIFE (STUDY DURATION: 493-754 D)): inactive; negative
- carcinogen call (Species: RAT, Strain/Sex: SPRAGUE-DAWLEY/MALE, Route: ORAL, Dose: 0, 500, 1000 PPM IN DRINKING WATER 5D/WK FOR LIFE (STUDY DURATION: 529-600 D), Dose: 0, 500, 1000 PPM IN DRINKING WATER 5D/WK FOR LIFE (STUDY DURATION: 529-600 D)): inactive; negative
